In general, TGI refers to the concentration giving total growth inhibition. Lower therefore signals more potent growth arrest.

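Growth conditions: 96-well plates. Treatment: test compound, 48 hours, 5 concentrations. Analysis: linear interpolation between bracketing concentrations; unreached endpoints set to highest concentration. TGI: total growth inhibition.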

For the first experiment, the system named is COLO 205 colon. Put plainly: DTP human tumour cell line panel, 48 h.
Regarding `Cc1ccc(C(=O)N/N=C(\N=Nc2cccc([N+](=O)[O-])c2)c2ccc(N(CCC#N)CCC#N)cc2C)cc1`, the TGI is 20.9 µM.

With `O=C(O)c1c2c(cc3c1CC(Cc1ccccc1)C3=O)CCC2` (stereo not drawn), the TGI was over 100 µM.

In turn, `OC(CC1CCCCN1)c1ccc2c(c1)oc1ccccc12` (stereo not drawn) gave a TGI of 45.2 µM.

`O=C1OC(CCCN2CCCCC2)(c2ccccc2)CC12CCCC2` (stereo not drawn): the TGI is over 100 µM.

Consider `COC(=O)[C@@H]1C=C[C@H](OC2OC(COC(C)=O)C(OC(C)=O)C(OC(C)=O)C2OC(C)=O)n2c(=O)n(-c3ccccc3)c(=O)n21` (stereo partly drawn), for which the TGI is 3.38 µM.

The compound `CSc1c(C(=O)Nc2ccccc2)c(N)n(N)c(=O)c1C#N` registered a TGI of over 100 µM.

`C=CCn1c(N)c(C#N)c(C#N)c1CCC` displayed a TGI of over 100 µM.

Consider `CC(C)(C)C1CCC(=O)/C(=C/CC2CC(=O)N(c3ccccc3)C(=O)C2)C1` (stereo not drawn), for which the TGI was determined as 41.2 µM.

Regarding `COC(=O)C1=C(OC(=O)/C(=C/c2ccccc2)c2ccc(Cl)cc2Cl)C(C(=O)OC)[C@@]2(O)[C@@H](C(=O)OC)[C@H](C)C[C@@H]1[C@@H]2C(=O)OC` (stereo partly drawn), the TGI was over 100 µM.

The compound `CS(=O)(=O)C(C#N)c1nc2ccccc2nc1Cl` (stereo not drawn) registered a total growth inhibition concentration (TGI) of over 100 µM.

Consider `Cc1cc(C)nc(NS(=O)(=O)c2ccc(Nc3c4ccccc4nc4ccc(C(=O)Nc5ccc(S(N)(=O)=O)cc5)cc34)cc2)n1`, for which the TGI is over 100 µM.

Regarding `CCOC(=O)/C=C(\C(=O)OCC)n1cc(C)c(=O)n(Cc2cn(CCCCOC(C)=O)nn2)c1=O`, the TGI was 8.91 µM.

The test system of the next experiment is EKVX NSCLC. Put plainly: DTP human tumour cell line panel, 48 h.
In turn, `Cc1ccc(C(=O)N/N=C(\N=Nc2cccc([N+](=O)[O-])c2)c2ccc(N(CCC#N)CCC#N)cc2C)cc1` registered a TGI of over 69.4 µM.

As for `O=C(O)c1c2c(cc3c1CC(Cc1ccccc1)C3=O)CCC2` (stereo not drawn), the TGI is over 100 µM.

For the compound `OC(CC1CCCCN1)c1ccc2c(c1)oc1ccccc12` (stereo not drawn), the TGI was over 100 µM.

In turn, `O=C1OC(CCCN2CCCCC2)(c2ccccc2)CC12CCCC2` (stereo not drawn) returned a TGI of over 100 µM.

With `COC(=O)[C@@H]1C=C[C@H](OC2OC(COC(C)=O)C(OC(C)=O)C(OC(C)=O)C2OC(C)=O)n2c(=O)n(-c3ccccc3)c(=O)n21` (stereo partly drawn), the TGI came out at 11.2 µM.

Take `CSc1c(C(=O)Nc2ccccc2)c(N)n(N)c(=O)c1C#N`: the TGI was over 100 µM.

`C=CCn1c(N)c(C#N)c(C#N)c1CCC` displayed a TGI of over 100 µM.

As for `CC(C)(C)C1CCC(=O)/C(=C/CC2CC(=O)N(c3ccccc3)C(=O)C2)C1` (stereo not drawn), the TGI was 60.2 µM.

`COC(=O)C1=C(OC(=O)/C(=C/c2ccccc2)c2ccc(Cl)cc2Cl)C(C(=O)OC)[C@@]2(O)[C@@H](C(=O)OC)[C@H](C)C[C@@H]1[C@@H]2C(=O)OC` (stereo partly drawn) had a TGI of over 100 µM.

The compound `CS(=O)(=O)C(C#N)c1nc2ccccc2nc1Cl` (stereo not drawn) came in with a TGI of over 100 µM.

Turning to `Cc1cc(C)nc(NS(=O)(=O)c2ccc(Nc3c4ccccc4nc4ccc(C(=O)Nc5ccc(S(N)(=O)=O)cc5)cc34)cc2)n1`, the TGI is over 100 µM.

Regarding `CCOC(=O)/C=C(\C(=O)OCC)n1cc(C)c(=O)n(Cc2cn(CCCCOC(C)=O)nn2)c1=O`, the TGI worked out at 24.2 µM.

The next experiment has as its system HCC-2998 colon. Briefly: DTP human tumour cell line panel, 48 h.
The compound `Cc1ccc(C(=O)N/N=C(\N=Nc2cccc([N+](=O)[O-])c2)c2ccc(N(CCC#N)CCC#N)cc2C)cc1` yielded a TGI of over 100 µM.

Compound `O=C(O)c1c2c(cc3c1CC(Cc1ccccc1)C3=O)CCC2` (stereo not drawn) had a TGI of over 100 µM.

In the case of `OC(CC1CCCCN1)c1ccc2c(c1)oc1ccccc12` (stereo not drawn), the TGI is over 100 µM.

`O=C1OC(CCCN2CCCCC2)(c2ccccc2)CC12CCCC2` (stereo not drawn) had a TGI of over 100 µM.

`COC(=O)[C@@H]1C=C[C@H](OC2OC(COC(C)=O)C(OC(C)=O)C(OC(C)=O)C2OC(C)=O)n2c(=O)n(-c3ccccc3)c(=O)n21` (stereo partly drawn) registered a TGI of 21.9 µM.

`CSc1c(C(=O)Nc2ccccc2)c(N)n(N)c(=O)c1C#N` yielded a TGI of over 100 µM.

With `C=CCn1c(N)c(C#N)c(C#N)c1CCC`, the TGI was over 100 µM.

In the case of `CC(C)(C)C1CCC(=O)/C(=C/CC2CC(=O)N(c3ccccc3)C(=O)C2)C1` (stereo not drawn), the TGI was 43.5 µM.

For the compound `COC(=O)C1=C(OC(=O)/C(=C/c2ccccc2)c2ccc(Cl)cc2Cl)C(C(=O)OC)[C@@]2(O)[C@@H](C(=O)OC)[C@H](C)C[C@@H]1[C@@H]2C(=O)OC` (stereo partly drawn), the TGI was over 100 µM.

The compound `CS(=O)(=O)C(C#N)c1nc2ccccc2nc1Cl` (stereo not drawn) came in with a TGI of over 100 µM.

`Cc1cc(C)nc(NS(=O)(=O)c2ccc(Nc3c4ccccc4nc4ccc(C(=O)Nc5ccc(S(N)(=O)=O)cc5)cc34)cc2)n1`: the TGI was over 100 µM.

For `CCOC(=O)/C=C(\C(=O)OCC)n1cc(C)c(=O)n(Cc2cn(CCCCOC(C)=O)nn2)c1=O`, the TGI was 34 µM.

Another experiment has as its system HL-60(TB) leukemia. Put plainly: DTP human tumour cell line panel, 48 h.
`Cc1ccc(C(=O)N/N=C(\N=Nc2cccc([N+](=O)[O-])c2)c2ccc(N(CCC#N)CCC#N)cc2C)cc1` returned a TGI of over 43 µM.

`O=C(O)c1c2c(cc3c1CC(Cc1ccccc1)C3=O)CCC2` (stereo not drawn) gave a TGI of 42.3 µM.

`OC(CC1CCCCN1)c1ccc2c(c1)oc1ccccc12` (stereo not drawn) yielded a TGI of over 100 µM.

In the case of `O=C1OC(CCCN2CCCCC2)(c2ccccc2)CC12CCCC2` (stereo not drawn), the TGI was over 100 µM.

For `COC(=O)[C@@H]1C=C[C@H](OC2OC(COC(C)=O)C(OC(C)=O)C(OC(C)=O)C2OC(C)=O)n2c(=O)n(-c3ccccc3)c(=O)n21` (stereo partly drawn), the TGI was 4.39 µM.

Consider `CSc1c(C(=O)Nc2ccccc2)c(N)n(N)c(=O)c1C#N`, for which the TGI was over 100 µM.

`C=CCn1c(N)c(C#N)c(C#N)c1CCC` displayed a TGI of over 100 µM.

For `CC(C)(C)C1CCC(=O)/C(=C/CC2CC(=O)N(c3ccccc3)C(=O)C2)C1` (stereo not drawn), the TGI came to 94.1 µM.

`COC(=O)C1=C(OC(=O)/C(=C/c2ccccc2)c2ccc(Cl)cc2Cl)C(C(=O)OC)[C@@]2(O)[C@@H](C(=O)OC)[C@H](C)C[C@@H]1[C@@H]2C(=O)OC` (stereo partly drawn) showed a TGI of over 100 µM.

Compound `CS(=O)(=O)C(C#N)c1nc2ccccc2nc1Cl` (stereo not drawn) displayed a TGI of over 100 µM.

For the compound `Cc1cc(C)nc(NS(=O)(=O)c2ccc(Nc3c4ccccc4nc4ccc(C(=O)Nc5ccc(S(N)(=O)=O)cc5)cc34)cc2)n1`, the TGI is over 100 µM.

`CCOC(=O)/C=C(\C(=O)OCC)n1cc(C)c(=O)n(Cc2cn(CCCCOC(C)=O)nn2)c1=O` displayed a TGI of 7.32 µM.

Source of the values: PubChem BioAssay (NCI).
